Reference: US10316017B2, “COT modulators and methods of use thereof” (Gilead Sciences, Inc., priority 2015, dated 2019)

Columns and labels:
[1] = tested on: TNFα production in LPS-stimulated human monocytes; assay: Cot Monocyte TNFα Cell Based Assay; conditions: Homo sapiens, Monocyte, TNFα in LPS-stimulated human monocytes; read-out: EC50 TNF
Protocol: Example 60: Cot Monocyte TNFα Cell Based Assay
The cell suspension was then plated at a density of 5,000 cells/well onto black 384 well Greiner clear bottom plates. Plates were pre-spotted with test compounds and serially diluted in DMSO where 200 nL/well were delivered using the Echo 550 acoustic liquid dispenser (Labcyte®) for a final DMSO concentration of 0.5%. Plated cells were treated with compound for 1 hour at 37° C. Cells were then stimulated with 50 pg/ml of LPS (Sigma) excluding outside columns of plate used for unstimulated cell control wells. Cells were incubated for an additional 4 hours at 37° C. Cells were then spun out of the media and 5 ul of sample were taken and analyzed for total TNFα content using the TR-FRET Human TNFα detection system (CisBio). This system utilizes two labeled antibodies (cryptate and XL665) that bind to two different epitopes of the TNFα molecule and produce FRET signal proportional to the concentration of TNFα in the sample. Detection antibodies are mixed 50:50 and 5 μL were dispensed into each well. Plates were covered with clear seals and incubated at room temp overnight. […] Percent of control was calculated as follows: % Control=100×(RatioSample−Ratio0% stimulation)/(Ratio100% Stimulation−Ratio0% Stimulation) where unstimulated cells (0% stimulation) were the negative control and stimulated cells (100% stimulation) were used as the positive control.

[2] = target: T1, human Cot catalytic domain (30-397 amino acids) (Homo sapiens, UniProt P41279); assay: High Throughput Cot Biochemical Assay (KinEASE TR-FRET); conditions: Cot KinEASE TR-FRET (HTRF) biochemical assay, 400 μM ATP; read-out: IC50 HTRF
T1 construct: Purified recombinant human Cot catalytic domain (30-397 amino acids) was purchased from Cama Biosciences; purchased Cama Biosciences (so in the source)
Summary of the method: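 Recombinant human Cot catalytic domain (aa 30-397), 5 nM, with 1 μM STK3 peptide and 400 μM ATP in MOPS pH 7.0 buffer with MgOAc, DTT, BSA, NP-40, glycerol, 0.1% DMSO. Phosphorylated XL665-peptide detected by Eu-[…] antibody TR-FRET.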

T1 sequence (P41279 30-397): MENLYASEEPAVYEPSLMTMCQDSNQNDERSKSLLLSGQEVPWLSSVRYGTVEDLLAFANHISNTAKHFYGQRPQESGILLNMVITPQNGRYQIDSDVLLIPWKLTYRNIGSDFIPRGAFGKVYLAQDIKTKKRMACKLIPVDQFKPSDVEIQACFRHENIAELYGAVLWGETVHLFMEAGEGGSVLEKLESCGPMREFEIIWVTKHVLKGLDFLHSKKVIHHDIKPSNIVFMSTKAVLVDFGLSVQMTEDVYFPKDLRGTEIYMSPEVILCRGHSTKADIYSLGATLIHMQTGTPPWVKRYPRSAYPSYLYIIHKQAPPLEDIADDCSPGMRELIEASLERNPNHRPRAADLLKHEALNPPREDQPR

Row | SMILES | EC50 [1] [nM] | IC50 [2] [nM]
1 | [2H]C(Nc1cc(Cl)c2ncc(C#N)c(NC3CCCC4CC43)c2c1)(c1ccc(F)cc1)c1cn(C2CC2)nn1 (stereo in doubt) [Example 250, 4-(bicyclo[4.1.0]heptan-2-ylamino)-8-chloro-6-(((S)-(1-cyclopropyl-1H-1,2,3-triazol-4-yl)(4-fluorophenyl)methyl-d)amino)quinoline-3-carbonitrile] | 993 | 147
2 | [2H]C(Nc1cc(Cl)c2ncc(C#N)c(NC3CCC4CC43)c2c1)(c1ccc(F)cc1)c1cn(C2CC2)nn1 (stereo in doubt) [Example 251, 4-(bicyclo[3.1.0]hexan-2-ylamino)-8-chloro-6-(((S)-(1-cyclopropyl-1H-1,2,3-triazol-4-yl)(4-fluorophenyl)methyl-d)amino)quinoline-3-carbonitrile] | 1280 | 105
3 | [2H]C(Nc1cc(Cl)c2ncc(C#N)c(NC3CC4CCCC(C4)C3)c2c1)(c1ccc(F)cc1)c1cn(C2CC2)nn1 (stereo in doubt) [Example 278, 4-(((1R,5S)-bicyclo[3.3.1]nonan-3-yl)amino)-8-chloro-6-(((S)-(1-cyclopropyl-1H-1,2,3-triazol-4-yl)(4-fluorophenyl)methyl-d)amino)quinoline-3-carbonitrile] | > 10000 | 222
4 | [2H]C(Nc1cc(F)c2ncc(C#N)c(NC(CC#N)c3ccccc3)c2c1)(c1ccc(F)cc1)c1cn(C2CC2)nn1 (stereo in doubt) [Example 286, 4-((2-cyano-1-phenylethyl)amino)-6-(((1-cyclopropyl-1H-1,2,3-triazol-4-yl)(4-fluorophenyl)methyl-d)amino)-8-fluoroquinoline-3-carbonitrile] | 127 | 7
5 | [2H]C(Nc1cc(Cl)c2ncc(C#N)c(N[C@H]3CCCCC3(C)C)c2c1)(c1ccc(F)cc1)c1cn(C2CC2)nn1 (stereo in doubt) [Example 319, 8-chloro-6-(((S)-(1-cyclopropyl-1H-1,2,3-triazol-4-yl)(4-fluorophenyl)methyl-d)amino)-4-(((S)-2,2-dimethylcyclohexyl)amino) quinoline-3-carbonitrile] | 4480 | 372
6 | [2H]C(Nc1cc(Cl)c2ncc(C#N)c(NC3C(C)CCCC3C)c2c1)(c1ccc(F)cc1)c1cn(C2CC2)nn1 (stereo in doubt) [Example 320, 8-chloro-6-(((S)(1-cyclopropyl-1H-1,2,3-triazol-4-yl)(4-fluorophenyl)methyl-d)amino)-4-((2,6-dimethylcyclohexyl)amino) quinoline-3-carbonitrile] | 6430 | 1150
7 | [2H][C@](Nc1cc(Cl)c2ncc(C#N)c(NCC(C)(C)C)c2c1)(c1ccc(F)cc1)c1cn(C2CC2)nn1 [Compound 1] | 143 | 6
8 | [2H][C@](Nc1cc(Cl)c2ncc(C#N)c(N[C@H](CC)c3ccccc3)c2c1)(c1ccc(F)cc1)c1cn(C2CC2)nn1 [Compound 2] | 151 | 6
9 | Cc1ccccc1[C@H](Nc1cc(Cl)c2ncc(C#N)c(NCC(C)(C)C)c2c1)c1cn(C2CC2)nn1 [Compound 3] | 246 | 7
10 | [2H]C(Nc1cc(Cl)c2ncc(C#N)c(NCC(C)(C)C)c2c1)(c1cn(CC(N)=O)nn1)c1ccccc1Cl (stereo not drawn) [Compound 4] | 280 | 6
11 | CCN1CCC(n2cc([C@@H](Nc3cc(Cl)c4ncc(C#N)c(Nc5ccc(F)c(Cl)c5)c4c3)c3ccc(F)cc3)nn2)CC1 [Compound 5] | 153 | 2
12 | N#Cc1cnc2c(Cl)cc(NC(c3ccc(F)cc3)c3ccon3)cc2c1Nc1ccc(F)c(Cl)c1 (stereo not drawn) [Compound 7] | 1520 | 187
13 | Cn1cc(C(Nc2cc(Br)c3ncc(C#N)c(Nc4ccc(F)c(Cl)c4)c3c2)c2ccc(F)cc2)nn1 (stereo not drawn) [Compound 8, 8-bromo-4-((3-chloro-4-fluorophenyl)amino)-6-(((4-fluorophenyl) (1-methyl-1H-1,2,3-triazol-4-yl)methyl)amino) quinoline-3-carbonitrile] | 571 | 33
14 | CC(=O)N(C)c1cccc([C@H](Nc2cc(C#N)c3ncc(C#N)c(NCC(C)(C)C)c3c2)c2cn(C3CC3)nn2)c1 [Compound 9] | 172 | 2
15 | CC(C)(C)N1CCC(n2cc([C@@H](Nc3cc(Cl)c4ncc(C#N)c(Nc5cnc(F)c(Cl)c5)c4c3)c3ccccc3)nn2)CC1 [Compound 10] | 71 | 4
16 | [2H][C@](Nc1cc(C(C)=O)c2ncc(C#N)c(NCC(C)(C)C)c2c1)(c1ccc(F)cc1)c1cn(C2CC2)nn1 [Compound 11] | 98 | 5
17 | [2H][C@](Nc1cc(-c2cncnc2)c2ncc(C#N)c(NCC(C)(C)C)c2c1)(c1ccc(F)cc1)c1cn(C2CC2)nn1 [Compound 12] | 205 | 20

Row | SMILES | EC50 [1] [nM] | IC50 [2] [nM]
18 | [2H][C@](Nc1cc(Br)c2ncc(C#N)c(NCC(C)(C)C)c2c1)(c1ccc(F)cc1)c1nnn(C2CC2)c1SC [Compound 13, (S)-8-bromo-6-(((1-cyclopropyl-5-(methylthio)-1H-1,2,3-triazol-4-yl)(4-fluorophenyl)methyl-d)amino)-4-(neopentylamino) quinoline-3-carbonitrile] | 221 | 71
19 | [2H][C@@](Nc1cc(C(C)=O)c2ncc(C#N)c(NCC(C)(C)C)c2c1)(c1cn(C2CC2)nn1)c1ccccc1Cl [Compound 14] | 298 | 13
20 | [2H][C@](Nc1cc(Cl)c2ncc(C#N)c(N[C@H](CC)c3ccccc3)c2c1)(c1cccc(C#N)c1)c1c[nH]nn1 [Compound 15] | 134 | 4
21 | CC(C)(C)N1CCC(n2cc([C@@H](Nc3cc(Cl)c4ncc(C#N)c(NC(=O)c5ccccc5)c4c3)c3ccc(F)cc3)nn2)CC1 [Compound 16, (S)-N-(6-(((1-(1-(tert-butyl)piperidin-4-yl)-1H-1,2,3-triazol-4-yl)(4-fluorophenyl)methyl)amino)-8-chloro-3-cyanoquinolin-4-yl)benzamide] | > 10000 | 1400
22 | CC(C)(C)N1CCC(n2cc([C@@H](Nc3cc(Cl)c4ncc(C#N)c(Nc5ccc(F)c(Cl)c5)c4c3)c3cccc(CO)c3)nn2)CC1 [Compound 17, (S)-6-(((1-(1-(tert-butyl)piperidin-4-yl)-1H-1,2,3-triazol-4-yl)(3-(hydroxymethyl)phenyl)methyl)amino)-8-chloro-4-((3-chloro-4-fluorophenyl)amino) quinoline-3-carbonitrile] | 260 | 4
23 | CN(C)Cc1cccc([C@H](Nc2cc(Cl)c3ncc(C#N)c(Nc4ccc(F)c(Cl)c4)c3c2)c2cn(C3CCN(C(C)(C)C)CC3)nn2)c1 [Compound 18] | 1220 | 7
24 | CC(C)(C)N1CCC(n2cc([C@@H](Nc3cc(Cl)c4ncc(C#N)c(Nc5ccc(F)c(Cl)c5)c4c3)c3cccc(C(=O)O)c3)nn2)CC1 [Compound 19] | 18000 | 5
25 | CN(C)C(=O)c1cccc([C@H](Nc2cc(Cl)c3ncc(C#N)c(Nc4ccc(F)c(Cl)c4)c3c2)c2cn(C3CCN(C(C)(C)C)CC3)nn2)c1 [Compound 20] | 41 | 1
26 | CC(=O)c1cccc([C@H](Nc2cc(Cl)c3ncc(C#N)c(Nc4ccc(F)c(Cl)c4)c3c2)c2cn(C3CCN(C(C)(C)C)CC3)nn2)c1 [Compound 21] | 234 | 5
27 | CC(O)c1cccc([C@H](Nc2cc(Cl)c3ncc(C#N)c(Nc4ccc(F)c(Cl)c4)c3c2)c2cn(C3CCN(C(C)(C)C)CC3)nn2)c1 (stereo partly drawn) [Compound 22] | 158 | 2
28 | CC(C)(C)N1CCC(n2cc([C@@H](Nc3cc(Cl)c4ncc(C#N)c(Nc5ccc(F)c(Cl)c5)c4c3)c3cccc(-c4ncco4)c3)nn2)CC1 [Compound 23] | 95 | 2
29 | CC(C)(C)N1CCC(n2cc([C@@H](Nc3cc(Cl)c4ncc(C#N)c(Nc5ccc(F)c(Cl)c5)c4c3)c3cccc(N)c3)nn2)CC1 [Compound 24] | 120 | 6
30 | CC(C)(C)N1CCC(n2cc([C@@H](Nc3cc(Cl)c4ncc(C#N)c(Nc5ccc(F)c(Cl)c5)c4c3)c3cccc(NS(C)(=O)=O)c3)nn2)CC1 [Compound 25] | 975 | 4
31 | [2H]C(Nc1cc(Cl)c2ncc(C#N)c(NCC(C)(C)C)c2c1)(c1cn(C(F)(F)CO)nn1)c1ccccc1Cl (stereo not drawn) [Compound 26] | 380 | 13
32 | CCN1CCC(n2cnc(C(Nc3cc(Cl)c4ncc(C#N)c(Nc5ccc(F)c(Cl)c5)c4c3)c3ccccc3)c2)CC1 (stereo not drawn) [Compound 27, 8-chloro-4-((3-chloro-4-fluorophenyl)amino)-6-(((1-(1-ethylpiperidin-4-yl)-1H-imidazol-4-yl)(phenyl)methyl)amino) quinoline-3-carbonitrile] | 232 | 11
33 | [2H][C@](Nc1cc(-c2ccccn2)c2ncc(C#N)c(NCC(C)(C)C)c2c1)(c1ccc(F)cc1)c1cn(C2CC2)nn1 [Compound 28] | > 1000 | 2000
